Reference: ChEMBL document CHEMBL1134190, “Synthesis of substituted 4(Z)-(methoxyimino)pentyl-1-piperidines as dual NK1/NK2 inhibitors” (Bioorg Med Chem Lett, 2001)

What was measured:
Substance-P receptor = Substance-P receptor (Homo sapiens, UniProt P25103); assay: Binding affinity towards NK1 receptor
Substance-K receptor = molecular target: T1, Substance-K receptor (Homo sapiens, UniProt P21452); assay: Binding affinity towards NK2 receptor
T1 sequence (P21452 whole entry): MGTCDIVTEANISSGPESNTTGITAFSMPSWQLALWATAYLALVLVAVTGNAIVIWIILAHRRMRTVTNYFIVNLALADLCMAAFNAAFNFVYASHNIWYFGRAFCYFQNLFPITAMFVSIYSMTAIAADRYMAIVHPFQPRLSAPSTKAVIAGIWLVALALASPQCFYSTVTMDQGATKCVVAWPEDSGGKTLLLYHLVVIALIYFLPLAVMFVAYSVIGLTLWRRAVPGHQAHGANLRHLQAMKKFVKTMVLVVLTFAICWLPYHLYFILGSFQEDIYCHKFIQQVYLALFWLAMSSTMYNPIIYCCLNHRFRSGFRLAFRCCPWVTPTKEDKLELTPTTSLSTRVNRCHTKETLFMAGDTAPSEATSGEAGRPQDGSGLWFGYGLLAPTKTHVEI

Substance-P receptor, sequence (P25103 whole entry): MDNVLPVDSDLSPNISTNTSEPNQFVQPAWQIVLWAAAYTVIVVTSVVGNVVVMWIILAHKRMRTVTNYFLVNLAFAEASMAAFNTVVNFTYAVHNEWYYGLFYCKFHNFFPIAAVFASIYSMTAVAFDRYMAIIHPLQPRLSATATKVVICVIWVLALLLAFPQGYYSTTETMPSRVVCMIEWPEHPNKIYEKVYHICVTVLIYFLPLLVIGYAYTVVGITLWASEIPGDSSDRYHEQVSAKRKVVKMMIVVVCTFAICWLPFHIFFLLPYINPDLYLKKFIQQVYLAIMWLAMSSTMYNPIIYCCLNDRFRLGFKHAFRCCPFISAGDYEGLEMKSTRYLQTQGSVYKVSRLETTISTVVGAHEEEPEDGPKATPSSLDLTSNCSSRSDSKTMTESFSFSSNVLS

Structure (SMILES) | Ki (Substance-P receptor) [nM] | Ki (Substance-K receptor) [nM]
CO/N=C(\COCc1cc(C(F)(F)F)cc(C(F)(F)F)c1)C(CCN1CCC(N2CCCC(C(N)=O)C2)CC1)c1ccc(Cl)c(Cl)c1 (stereo not drawn) | 13 | 11
C=CCC1CCCN(CC2CCN(CCC(/C(COCc3cc(C(F)(F)F)cc(C(F)(F)F)c3)=N/OC)c3ccc(Cl)c(Cl)c3)CC2)C1=O (stereo not drawn) | 13 | 58
CO/N=C(\COCc1cc(C(F)(F)F)cc(C(F)(F)F)c1)C(CCN1CCC(CN2CCCCC2)CC1)c1ccc(Cl)c(Cl)c1 (stereo not drawn) | 36 | 26
CO/N=C(\COCc1cc(C(F)(F)F)cc(C(F)(F)F)c1)C(CCN1CCC(CN2CCCC(OC(=O)NC(C)C)C2)CC1)c1ccc(Cl)c(Cl)c1 (stereo not drawn) | 17 | 33
CO/N=C(\COCc1cc(C(F)(F)F)cc(C(F)(F)F)c1)C(CCN1CCC(N2CCC(O)C2)CC1)c1ccc(Cl)c(Cl)c1 (stereo not drawn) | 4 | 16
CO/N=C(\COCc1cc(C(F)(F)F)cc(C(F)(F)F)c1)C(CCN1CCC(N2CCCC2=O)CC1)c1ccc(Cl)c(Cl)c1 (stereo not drawn) | 9 | 7
CO/N=C(\COCc1cc(C(F)(F)F)cc(C(F)(F)F)c1)C(CCN1CCC(CN2CCCCC2CO)CC1)c1ccc(Cl)c(Cl)c1 (stereo not drawn) | 20 | 53
CO/N=C(\COCc1cc(C(F)(F)F)cc(C(F)(F)F)c1)C(CCN1CCC(CN2CCCC(C(N)=O)C2)CC1)c1ccc(Cl)c(Cl)c1 (stereo not drawn) | 25 | 27
CO/N=C(\COCc1cc(C(F)(F)F)cc(C(F)(F)F)c1)C(CCN1CCC(N2CCCC2)CC1)c1ccc(Cl)c(Cl)c1 (stereo not drawn) | 36 | 195
CO/N=C(\COCc1cc(C(F)(F)F)cc(C(F)(F)F)c1)C(CCN1CCC(CN2CCCC(CC3CC3)C2=O)CC1)c1ccc(Cl)c(Cl)c1 (stereo not drawn) | 14 | 26
CO/N=C(\COCc1cc(C(F)(F)F)cc(C(F)(F)F)c1)C(CCN1CCC(CNC(=O)c2ccccc2)CC1)c1ccc(Cl)c(Cl)c1 (stereo not drawn) | 112 | 137
CO/N=C(\COCc1cc(C(F)(F)F)cc(C(F)(F)F)c1)C(CCN1CCC(CN2CCCC(CO)C2)CC1)c1ccc(Cl)c(Cl)c1 (stereo not drawn) | 50 | 39
CO/N=C(\COCc1cc(C(F)(F)F)cc(C(F)(F)F)c1)C(CCN1CCC(C(=O)N2CCCC2)CC1)c1ccc(Cl)c(Cl)c1 (stereo not drawn) | 6 | 59
CO/N=C(\COCc1cc(C(F)(F)F)cc(C(F)(F)F)c1)C(CCN1CCC(NC(=O)c2ccccc2)CC1)c1ccc(Cl)c(Cl)c1 (stereo not drawn) | 18 | 144
CO/N=C(\COCc1cc(C(F)(F)F)cc(C(F)(F)F)c1)C(CCN1CCC(C(N)=O)CC1)c1ccc(Cl)c(Cl)c1 (stereo not drawn) |  | 67
CO/N=C(\COCc1cc(C(F)(F)F)cc(C(F)(F)F)c1)C(CCN1CCC(CN2CCCC2=O)CC1)c1ccc(Cl)c(Cl)c1 (stereo not drawn) | 8 | 21

Structure (SMILES) | Ki (Substance-P receptor) [nM] | Ki (Substance-K receptor) [nM]
CO/N=C(\COCc1cc(C(F)(F)F)cc(C(F)(F)F)c1)C(CCN1CCC(CN2CCCCC2=S)CC1)c1ccc(Cl)c(Cl)c1 (stereo not drawn) | 20 | 23
CO/N=C(\COCc1cc(C(F)(F)F)cc(C(F)(F)F)c1)C(CCN1CCC(CN2CCCC(Cc3ccccc3)C2=O)CC1)c1ccc(Cl)c(Cl)c1 (stereo not drawn) | 69 | 91
CO/N=C(\COCc1cc(C(F)(F)F)cc(C(F)(F)F)c1)C(CCN1CCC(CN2CCCC(CC(O)CO)C2=O)CC1)c1ccc(Cl)c(Cl)c1 (stereo not drawn) | 7 | 16
CO/N=C(\COCc1cc(C(F)(F)F)cc(C(F)(F)F)c1)C(CCN1CCC(N2CCCC2=S)CC1)c1ccc(Cl)c(Cl)c1 (stereo not drawn) | 16 | 23
CO/N=C(\COCc1cc(C(F)(F)F)cc(C(F)(F)F)c1)C(CCN1CCC(CN2CCCCC2=O)CC1)c1ccc(Cl)c(Cl)c1 (stereo not drawn) | 10 | 12
CO/N=C(\COCc1cc(C(F)(F)F)cc(C(F)(F)F)c1)C(CCN1CCC(N2CCC[C@H]2C(N)=O)CC1)c1ccc(Cl)c(Cl)c1 (stereo partly drawn) | 13 | 11
CCOC(=O)C1CCCN(C2CCN(CCC(/C(COCc3cc(C(F)(F)F)cc(C(F)(F)F)c3)=N/OC)c3ccc(Cl)c(Cl)c3)CC2)C1 (stereo not drawn) | 117 | 20
CO/N=C(\COCc1cc(C(F)(F)F)cc(C(F)(F)F)c1)C(CCN1CCC(CN2CCCCC2CCO)CC1)c1ccc(Cl)c(Cl)c1 (stereo not drawn) | 13 | 14
CO/N=C(\COCc1cc(C(F)(F)F)cc(C(F)(F)F)c1)C(CCN1CCC(CN2CCOCC2)CC1)c1ccc(Cl)c(Cl)c1 (stereo not drawn) | 14 | 39
CO/N=C(\COCc1cc(C(F)(F)F)cc(C(F)(F)F)c1)C(CCN1CCC(NC(=O)C2CCCCC2)CC1)c1ccc(Cl)c(Cl)c1 (stereo not drawn) | 44 | 146
CCOC(=O)C1CCCN(CC2CCN(CCC(/C(COCc3cc(C(F)(F)F)cc(C(F)(F)F)c3)=N/OC)c3ccc(Cl)c(Cl)c3)CC2)C1 (stereo not drawn) | 16 | 28
CO/N=C(\COCc1cc(C(F)(F)F)cc(C(F)(F)F)c1)C(CCN1CCC(N2CCC(OC(=O)NC(C)C)C2)CC1)c1ccc(Cl)c(Cl)c1 (stereo not drawn) | 19 | 67
CO/N=C(\COCc1cc(C(F)(F)F)cc(C(F)(F)F)c1)C(CCN1CCC(N2CCCCC2CO)CC1)c1ccc(Cl)c(Cl)c1 (stereo not drawn) | 14 | 15
CO/N=C(\COCc1cc(C(F)(F)F)cc(C(F)(F)F)c1)C(CCN1CCC(CN2CCCC(O)C2)CC1)c1ccc(Cl)c(Cl)c1 (stereo not drawn) | 38 | 47
CO/N=C(\COCc1cc(C(F)(F)F)cc(C(F)(F)F)c1)C(CCN1CCC(CNC2(CO)CCCC2)CC1)c1ccc(Cl)c(Cl)c1 (stereo not drawn) | 24 | 16
CO/N=C(\COCc1cc(C(F)(F)F)cc(C(F)(F)F)c1)C(CCN1CCC(N2CCCCC2=O)CC1)c1ccc(Cl)c(Cl)c1 (stereo not drawn) | 18 | 4
